{"source": "patent US6893858B2", "about": "“Human kcnq5 potassium channel, methods and compositions thereof” (Bristol-Myers Squibb Company, priority 2000, dated 2005)", "target": "hKCNQ5 (Homo sapiens, UniProt Q9NR82)", "sequence (Q9NR82 36-932)": "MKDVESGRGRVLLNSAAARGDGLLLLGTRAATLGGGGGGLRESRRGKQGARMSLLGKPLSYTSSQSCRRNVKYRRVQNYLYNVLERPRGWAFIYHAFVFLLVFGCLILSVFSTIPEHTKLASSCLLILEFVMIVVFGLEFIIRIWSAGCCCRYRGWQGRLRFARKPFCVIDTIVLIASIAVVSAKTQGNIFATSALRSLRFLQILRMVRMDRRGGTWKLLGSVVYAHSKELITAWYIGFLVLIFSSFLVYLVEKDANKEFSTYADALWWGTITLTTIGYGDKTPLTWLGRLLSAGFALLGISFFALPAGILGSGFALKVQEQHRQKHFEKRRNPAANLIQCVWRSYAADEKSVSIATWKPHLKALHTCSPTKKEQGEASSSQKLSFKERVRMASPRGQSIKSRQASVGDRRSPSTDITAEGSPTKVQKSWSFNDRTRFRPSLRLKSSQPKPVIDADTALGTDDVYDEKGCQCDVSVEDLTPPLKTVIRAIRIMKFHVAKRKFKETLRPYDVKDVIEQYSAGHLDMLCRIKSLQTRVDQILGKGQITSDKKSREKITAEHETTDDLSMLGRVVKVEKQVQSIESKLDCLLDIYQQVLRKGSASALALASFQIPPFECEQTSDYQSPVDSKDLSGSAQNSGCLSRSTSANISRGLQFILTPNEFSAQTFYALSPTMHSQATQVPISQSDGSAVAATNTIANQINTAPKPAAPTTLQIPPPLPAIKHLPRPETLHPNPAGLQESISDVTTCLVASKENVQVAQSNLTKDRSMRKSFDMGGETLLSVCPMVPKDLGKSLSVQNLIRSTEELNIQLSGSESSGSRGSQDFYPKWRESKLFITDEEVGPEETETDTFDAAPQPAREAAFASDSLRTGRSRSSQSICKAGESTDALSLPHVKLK", "procedure": "Frog (Xenopus laevis) oocytes were prepared and injected using standard techniques; each oocyte was injected with approximately 50 nl of hKCNQ5 cRNA. Following injection, oocytes were maintained at 17° C. in ND96 medium comprising (in mM): NaCl, 90; KCl, 1.0; CaCl2, 1.0; MgCl2, 1.0; HEPES, 5.0; pH 7.5. Horse serum (5%) and penicillin/streptomycin (5%) were added to the incubation medium. Recording commenced 2-6 days following mRNA injection. Prior to the start of an experiment, oocytes were placed in a recording chamber and incubated in Modified Barth's Solution (MBS) consisting of (in mM): NaCl, 88; NaHCO3, 2.4; KCl, 1.0; HEPES, 10; MgSO4, 0.82; Ca(NO3)2, 0.33; CaCl2, 0.41; pH 7.5. Oocytes were impaled with electrodes (1-2 MΩ) and standard 2-electrode voltage clamp techniques were employed to record whole-cell membrane currents. Voltage-clamp protocols typically consisted of a series of voltage steps 1-5 second duration, in +10 mV steps from a holding potential of −90 mV to a maximal potential of +40 mV; records were digitized at 5 kHz and stored on a computer using pClamp data acquisition and analysis software (Axon Instruments)."}
{"smiles": "CC[N+](CC)(CC)CC", "note": "[TEA, tetraethylammonium]", "values": [{"measurement": "resistance of hKCNQ5 currents to the potassium channel blocker", "setting": "hKCNQ5 cRNA expressed in Xenopus oocytes, concentrations as high as 30 mM, whole-cell outward currents", "value": "largely resistant"}, {"measurement": "blockage of hKCNQ5 outward currents (FIG. 8 legend)", "setting": "hKCNQ5 expressed in Xenopus oocytes, at high concentrations", "value": "resistant to blockage"}]}
